Experimental data reported in patent US9040660B2, “Long-acting gastrin derivatives” (priority 2010, dated 2015).
Read-outs that look alike come from different tables or passages of the source. Numbered stars: 1 amine (or outer) side, 2 acyl side, 3 side chain; on linkers, the order of the positions; unused ones are H or OH. Peptide text beside a SMILES is read from it. * marks the point of attachment. C18 diacid = O=C(O)CCCCCCCCCCCCCCCCC(=O)*; γGlu = O=C(O)[C@H](CCC(=O)[*:2])N[*:1]; AEEA = NCCOCCOCC(=O)O

Assays:
[1] = set-up: species or system Göttingen mini-pigs; conditions: minipig, in vivo, iv, 10 nmol/kg
Procedure: Assay (II): Minipig i.v. PK
Six male Göttingen mini-pigs weighing approximately 20 to 23 kg from Ellegaard Gottingen Minipigs A/S, Denmark were comprised in the study. The mini-pigs were dosed intra venous (i.v.) via a central catheter in vena cava caudalis. The catheter was flushed with 10 ml saline post administration. Blood was sampled from the central catheter. Test substances were dissolved in a vehicle consisting of in 50 mM sodium phosphate, […] sodium chloride, 0.05% tween80 pH 7.4. The pigs were dosed with 10 nmol of gastrin compound (such as gastrin derivative)/kg body weight or 10 nmol Gastrin-17/kg body weight. Blood samples were taken at the following time points: pre-dose, 5 minutes, 15 minutes, 30 minutes, 45 minutes, 1, 1.5, 2, 3, 4, 6, 8, 10, 24, 48, 72, 96, 120, 168, 192 and 216 hours post dosing. The blood samples were collected into test tubes containing EDTA buffer for stabilization and kept on ice for max. 20 minutes before centrifugation. The centrifugation procedure to separate plasma may be: 4° C., approx. 2500 g for 10 minutes. Plasma was collected and immediately transferred to Micronic tubes stored at −20° C. until assayed.
Blood samples were analysed for gastrin compound content using a competitive scintillation proximity assay (SPA). The assay is a radiometric-ligand binding assay using […]™ imaging particles. The assay involves a rabbit anti-human gastrin-17(2-17) polyclonal antibody, wherein the human gastrin-17(2-17) against which said antibody raised contained position 2-17 of SEQ ID NO:2 (said antibody is obtainable from professor Jens Rehfeld, Rigshospitalet, Copenhagen, Denmark), [^125I]-Tyr^12 gastrin I (human) (which has the sequence pG1u-[…][^125I]Tyr-Gly-Trp-Met-Asp-Phe-NH2, item no. NEX176010UC, […]® Waltham, Massachusetts, USA) and PS […]™ particles coated with anti-rabbit Ig antibodies. Gastrin compounds (in calibrators, controls or unknown samples) and [^125I]-Tyr12 human gastrin I will compete for the binding to the polyclonal rabbit anti human gastrin I antibody. The anti-rabbit Ig antibodies on the […]™ particles recognize the anti-gastrin antibodies bringing the [^125I-] gastrin molecules in close proximity to the […]™ particles resulting in light emission from the particles. The […]™ will image the emitted light that is reversely correlated to the amount of gastrin compound present in the sample. 5μL sample, calibrator or control was applied to white 384-well polystyrene plates followed by 10μantibody working solution (rabbit-anti-Gastrin serum from rabbit 2609 batch 11/10-73), 10μl tracer working solution and 10μl bead working solution. […] After exchanging the seal against a new one, the light emission was detected with a […]™ Multimodality Imaging System. […]
The concentration-response relationship was calculated using a four-parameter logistic model using non linear regression analysis and the output of the assay was the concentration of the respective gastrin analogue in pM. The in vivo plasma half life was determined by non-compartmental analysis (NCA) of plasma concentration-time profiles from each animal. NCA may be carried out as follows: Plasma concentration-time profiles were analyzed by non-compartmental pharmacokinetics analysis (NCA) using WinNonlin (Pharsight Inc., Mountain View, Calif., USA); NCA was performed using the individual plasma concentration-time profiles from each animal.
Half life of gastrin compounds was determined according to Assay (II).

[2] = target: T1, CCK2 receptor (gastrin receptor) (Homo sapiens, UniProt P32239); type: cell-based; conditions: [Leu15] Gastrin-17 = 100, NIH 3T3/CCK2R cells, calcium mobilization
T1 construct: expressed in transfected cells; host or cells: NIH 3T3/CCK2R cells (mouse fibroblast line overexpressing CCK2R, kept under G418 selection)
T1 sequence (P32239 1-447): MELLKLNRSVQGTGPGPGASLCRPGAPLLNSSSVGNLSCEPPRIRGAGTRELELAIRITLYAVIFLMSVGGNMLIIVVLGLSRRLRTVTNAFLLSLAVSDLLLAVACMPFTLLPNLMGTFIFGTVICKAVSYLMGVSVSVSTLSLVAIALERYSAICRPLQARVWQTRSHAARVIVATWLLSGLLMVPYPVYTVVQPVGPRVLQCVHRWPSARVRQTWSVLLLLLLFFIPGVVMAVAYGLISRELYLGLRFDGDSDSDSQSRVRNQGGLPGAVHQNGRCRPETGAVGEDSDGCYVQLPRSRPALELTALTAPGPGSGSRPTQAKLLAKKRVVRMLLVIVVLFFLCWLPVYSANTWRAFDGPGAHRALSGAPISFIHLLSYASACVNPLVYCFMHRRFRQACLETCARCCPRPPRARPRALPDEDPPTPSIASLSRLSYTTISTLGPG
Procedure: Assay (I): In Vitro Receptor Potency In vitro receptor potency was measured using a CCK2 receptor mediated calcium mobilization assay. The CCK2 receptor (gastrin receptor) signals via the heterotrimeric G-protein, Gq, to activate phospholipase C(PLC). This leads to generation of inositol-1,4,5-trisphosphate (IP3) that releases calcium from intracellular stores. The primary rise in cytosolic calcium concentration is followed by activation of calcium dependent calcium channels in the plasma membrane allowing extracellular calcium to enter the cell. The rise in calcium concentration is transient, but it can be measured in situ by loading the cells with a calcium dependent fluorescent probe and monitored by the use of 96- or 384-well fluorescence plate readers. In the current assay, NIH 3T3/CCK2R cells were seeded in black PolyLysin coated 384 well plates with clear bottom at 14000 cells per well and incubated overnight in 25 μl (per well) Gibco Nut. mix F-12 Glutamax medium with 10% FCS, 1% penicillin and streptomycin and 1 mg/ml […]418). The next day […] dye solution (Ca 5 probe from Molecular Devices, dissolved in HBSS/Hepes buffer pH 7.4 containing 0.1% Ovalbumin, 0.005% Tween 20, 3.5 μM Probenecid, 50 μM PDE inhibitor and 0.2% CaCl2) was added per well and the plate was incubated for 1 hour at room temperature. After incubation, these plates were loaded onto FLIPR Tetra from Molecular Devices together with the sample plates containing dilution series of gastrin analogues in HBSS/Hepes buffer with 30% DMSO. During the assay run, 1 μl sample was transferred from the sample plate to the assay plate. Beside the baseline fluorescence measurement, a second fluorescence measurement was performed after 30 seconds with both measurements using the […] 540 nm/590 nm. For each agonist concentration E=Emax. Emin was calculated. The concentration-response relationship was calculated using a four-parameter logistic model using non linear regression analysis (Prism 5.02, GraphPad Software). In vitro receptor potency of gastrin compounds was measured using Assay (I).

[3] = dog, in vivo; cited from earlier work
[4] = Table 2: N-terminal acylation/truncation series

half-life [1]	Relative Receptor Potency ([2]; Table 3: acylation position (Lys scan) series)	SMILES	Relative Receptor Potency [2, 4]	half life [3]
109 ± 26 h	57	CC(C)C[C@H](NC(=O)[C@H](Cc1c[nH]c2ccccc12)NC(=O)CNC(=O)[C@H](Cc1ccc(O)cc1)NC(=O)[C@H](C)NC(=O)[C@H](CCC(=O)O)NC(=O)[C@H](CCC(=O)O)NC(=O)[C@H](CCC(=O)O)NC(=O)[C@H](CCC(=O)O)NC(=O)[C@H](CCC(=O)O)NC(=O)[C@H](CC(C)C)NC(=O)[C@H](Cc1c[nH]c2ccccc12)NC(=O)[C@@H]1CCCN1C(=O)CNC(=O)[C@H](CCC(N)=O)NC(=O)COCCOCCNC(=O)COCCOCCNC(=O)CC[C@H](NC(=O)CCCCCCCCCCCCCCCCC(=O)O)C(=O)O)C(=O)N[C@@H](CC(=O)O)C(=O)N[C@@H](Cc1ccccc1)C(N)=O [N-α-#-[Leu15] Gastrin-17, N-alpha-{2-(2-{2-[2-(2-{2-[4-Carboxy-4-(17-carboxyheptadecanoylamino)butyrylamino]ethoxy}-ethoxy)acetylamino]-ethoxy}ethoxy)acetyl}[Gln1,Leu15] gastrin-17] ({C18 diacid-γGlu-AEEA-AEEA}-QGPWLEEEEEAYGWLDF-NH2)	76	–
0.058 ± 0.007 h	–	CSCC[C@H](NC(=O)[C@H](Cc1c[nH]c2ccccc12)NC(=O)CNC(=O)[C@H](Cc1ccc(O)cc1)NC(=O)[C@H](C)NC(=O)[C@H](CCC(=O)O)NC(=O)[C@H](CCC(=O)O)NC(=O)[C@H](CCC(=O)O)NC(=O)[C@H](CCC(=O)O)NC(=O)[C@H](CCC(=O)O)NC(=O)[C@H](CC(C)C)NC(=O)[C@H](Cc1c[nH]c2ccccc12)NC(=O)[C@@H]1CCCN1C(=O)CNC(=O)[C@@H](N)CCC(N)=O)C(=O)N[C@@H](CC(=O)O)C(=O)N[C@@H](Cc1ccccc1)C(N)=O [gastrin-17, reference compound]	–	2 to 8 min

Second part, the compound before the results:

SMILES	half-life [1]	Relative Receptor Potency ([2]; Table 3: acylation position (Lys scan) series)	Relative Receptor Potency [2, 4]	half life [3]
CSCC[C@H](NC(=O)[C@H](Cc1c[nH]c2ccccc12)NC(=O)CNC(=O)[C@H](Cc1ccc(O)cc1)NC(=O)[C@H](C)NC(=O)[C@H](CCC(=O)O)NC(=O)[C@H](CCC(=O)O)NC(=O)[C@H](CCC(=O)O)NC(=O)[C@H](CCC(=O)O)NC(=O)[C@H](CCC(=O)O)NC(=O)[C@H](CC(C)C)NC(=O)[C@H](Cc1c[nH]c2ccccc12)NC(=O)[C@@H]1CCCN1C(=O)CNC(=O)[C@H](CCC(N)=O)NC(=O)COCCOCCNC(=O)COCCOCCNC(=O)CC[C@H](NC(=O)CCCCCCCCCCCCCCCCC(=O)O)C(=O)O)C(=O)N[C@@H](CC(=O)O)C(=O)N[C@@H](Cc1ccccc1)C(N)=O [N-alpha-#-gastrin-17, N-alpha-{2-(2-{2-[2-(2-{2-[4-Carboxy-4-(17-carboxyheptadecanoylamino)butyrylamino]ethoxy}-ethoxy)acetylamino]-ethoxy}ethoxy)acetyl}[Gln1] gastrin-17 (A)]	64 ± 6 h	–	–	–
CC(C)C[C@H](NC(=O)[C@H](Cc1c[nH]c2ccccc12)NC(=O)CNC(=O)[C@H](Cc1ccc(O)cc1)NC(=O)[C@H](C)NC(=O)[C@H](CCC(=O)O)NC(=O)[C@H](CCC(=O)O)NC(=O)[C@H](CCC(=O)O)NC(=O)[C@H](CCC(=O)O)NC(=O)[C@H](CCC(=O)O)NC(=O)[C@H](CC(C)C)NC(=O)[C@H](Cc1c[nH]c2ccccc12)NC(=O)COCCOCCNC(=O)COCCOCCNC(=O)CC[C@H](NC(=O)CCCCCCCCCCCCCCCCC(=O)O)C(=O)O)C(=O)N[C@@H](CC(=O)O)C(=O)N[C@@H](Cc1ccccc1)C(N)=O [N-α-#-[Leu15] Gastrin-17 (4-17), N-alpha-{2-(2-{2-[2-(2-{2-[4-Carboxy-4-(17-carboxyheptadecanoylamino)butyrylamino]ethoxy}-ethoxy)acetylamino]-ethoxy}ethoxy)acetyl}[Leu15] gastrin-17 (4-17)] ({C18 diacid-γGlu-AEEA-AEEA}-WLEEEEEAYGWLDF-NH2)	95 h	–	58	–
CC(C)C[C@H](NC(=O)[C@H](Cc1c[nH]c2ccccc12)NC(=O)CNC(=O)[C@H](Cc1ccc(O)cc1)NC(=O)[C@H](C)NC(=O)[C@H](CCC(=O)O)NC(=O)[C@H](CCC(=O)O)NC(=O)[C@H](CCC(=O)O)NC(=O)[C@H](CCC(=O)O)NC(=O)COCCOCCNC(=O)COCCOCCNC(=O)CC[C@H](NC(=O)CCCCCCCCCCCCCCCCC(=O)O)C(=O)O)C(=O)N[C@@H](CC(=O)O)C(=O)N[C@@H](Cc1ccccc1)C(N)=O [N-α-#-[Leu15] Gastrin-17 (7-17), N-alpha-{2-(2-{2-[2-(2-{2-[4-Carboxy-4-(17-carboxyheptadecanoylamino)butyrylamino]ethoxy}-ethoxy)acetylamino]-ethoxy}ethoxy)acetyl}[Leu15] gastrin-17 (7-17)] ({C18 diacid-γGlu-AEEA-AEEA}-EEEEAYGWLDF-NH2)	~95 h	–	39	–
